Measured values: ChEMBL document CHEMBL4411303, “Synthesis of tetrazole derivatives bearing pyrrolidine scaffold and evaluation of their antifungal activity against Candida albicans” (Eur J Med Chem, 2019)
Activity calls are given as the source filed them. No cut-off for these calls is given here.

Assays:
Candida albicans [1] = test: Fungicidal activity against Candida albicans ATCC 90028 assessed as log reduction in fungal load incubated for 48 hrs followed by replating on sabouraud dextrose agar plate and measured after 48 hrs; format: functional
Candida albicans [2] = test: Cell cycle arrest in Candida albicans ATCC 90028 assessed as accumulation at G0/G1-phase by propidium iodide staining based flow cytometry; format: functional, organism-based
Candida albicans [3] = test: Antifungal activity against Candida albicans ATCC 90028 assessed as planktonic growth inhibition at 45.53 uM after 48 hrs by M27-A3 protocol based method relative to control; format: functional; details: ATCC 90028, 48 h, read-out: GI
Candida albicans [4] = test: Antifungal activity against Candida albicans ATCC 90028 assessed as planktonic growth inhibition at 11.38 uM after 48 hrs by M27-A3 protocol based method relative to control; format: functional; details: ATCC 90028, 48 h, read-out: GI
Candida albicans [5] = test: Antifungal activity against Candida albicans ATCC 90028 assessed as planktonic growth inhibition at 22.76 uM after 48 hrs by M27-A3 protocol based method relative to control; format: functional; details: ATCC 90028, 48 h, read-out: GI
Candida albicans [6] = test: Antifungal activity against Candida albicans ATCC 90028 assessed as planktonic growth inhibition at 0.71 uM after 48 hrs by M27-A3 protocol based method relative to control; format: functional; details: ATCC 90028, 48 h, read-out: GI
Candida albicans [7] = test: Antifungal activity against Candida albicans ATCC 90028 assessed as planktonic growth inhibition at 5.69 uM after 48 hrs by M27-A3 protocol based method relative to control; format: functional; details: ATCC 90028, 48 h, read-out: GI
Candida albicans [8] = test: Antifungal activity against Candida albicans ATCC 90028 assessed as planktonic growth inhibition at 0.09 uM after 48 hrs by M27-A3 protocol based method relative to control; format: functional; details: ATCC 90028, 48 h, read-out: GI
Candida albicans [9] = test: Antifungal activity against Candida albicans ATCC 90028 assessed as planktonic growth inhibition at 2.85 uM after 48 hrs by M27-A3 protocol based method relative to control; format: functional; details: ATCC 90028, 48 h, read-out: GI
Candida albicans [10] = test: Antifungal activity against Candida albicans ATCC 90028 assessed as planktonic growth inhibition at 0.36 uM after 48 hrs by M27-A3 protocol based method relative to control; format: functional; details: ATCC 90028, 48 h, read-out: GI
Candida albicans [11] = test: Antifungal activity against Candida albicans ATCC 90028 infected in Galleria mellonella larvae assessed as induction of pathogen entrapping by haemocytes at 10 uL measured at 24 hrs interval for 144 hrs by HE staining based microscopic analysis; format: functional, organism-based
Candida albicans [12] = test: Antifungal activity against Candida albicans ATCC 90028 assessed as planktonic growth inhibition at 0.18 uM after 48 hrs by M27-A3 protocol based method relative to control; format: functional; details: ATCC 90028, 48 h, read-out: GI
Candida albicans [13] = test: Antifungal activity against Candida albicans ATCC 90028 assessed as planktonic growth inhibition at 1.42 uM after 48 hrs by M27-A3 protocol based method relative to control; format: functional; details: ATCC 90028, 48 h, read-out: GI
Candida albicans [14] = test: Antifungal activity against Candida albicans ATCC 90028 infected in Galleria mellonella larvae assessed as inhibition of fungus filamentation at 10 uL measured at 24 hrs interval for 144 hrs by HE staining based microscopic analysis; format: functional, organism-based
Candida albicans [15] = test: Antifungal activity against Candida albicans ATCC 90028 assessed as planktonic growth inhibition at 5.53 uM after 48 hrs by M27-A3 protocol based method relative to control; format: functional; details: ATCC 90028, 48 h, read-out: GI
Candida albicans [16] = test: Antifungal activity against Candida albicans ATCC 90028 assessed as planktonic growth inhibition at 22.13 uM after 48 hrs by M27-A3 protocol based method relative to control; format: functional; details: ATCC 90028, 48 h, read-out: GI
Candida albicans [17] = test: Antifungal activity against Candida albicans ATCC 90028 assessed as planktonic growth inhibition at 1.38 uM after 48 hrs by M27-A3 protocol based method relative to control; format: functional; details: ATCC 90028, 48 h, read-out: GI
Candida albicans [18] = test: Antifungal activity against Candida albicans ATCC 90028 assessed as planktonic growth inhibition at 11.07 uM after 48 hrs by M27-A3 protocol based method relative to control; format: functional; details: ATCC 90028, 48 h, read-out: GI
Candida albicans [19] = test: Antifungal activity against Candida albicans ATCC 90028 assessed as planktonic growth inhibition at 0.17 uM after 48 hrs by M27-A3 protocol based method relative to control; format: functional; details: ATCC 90028, 48 h, read-out: GI
Candida albicans [20] = test: Antifungal activity against Candida albicans ATCC 90028 assessed as planktonic growth inhibition at 2.77 uM after 48 hrs by M27-A3 protocol based method relative to control; format: functional; details: ATCC 90028, 48 h, read-out: GI
Candida albicans [21] = test: Antifungal activity against Candida albicans ATCC 90028 assessed as planktonic growth inhibition at 44.26 uM after 48 hrs by M27-A3 protocol based method relative to control; format: functional; details: ATCC 90028, 48 h, read-out: GI
Candida albicans [22] = test: Antifungal activity against Candida albicans ATCC 90028 assessed as planktonic growth inhibition at 0.35 uM after 48 hrs by M27-A3 protocol based method relative to control; format: functional; details: ATCC 90028, 48 h, read-out: GI
Candida albicans [23] = test: Antifungal activity against Candida albicans ATCC 90028 assessed as planktonic growth inhibition at 0.69 uM after 48 hrs by M27-A3 protocol based method relative to control; format: functional; details: ATCC 90028, 48 h, read-out: GI
Candida albicans [24] = test: Antifungal activity against Candida albicans ATCC 90028 assessed as planktonic growth inhibition at 0.68 uM after 48 hrs by M27-A3 protocol based method relative to control; format: functional; details: ATCC 90028, 48 h, read-out: GI
Candida albicans [25] = test: Antifungal activity against Candida albicans ATCC 90028 assessed as planktonic growth inhibition at 21.89 uM after 48 hrs by M27-A3 protocol based method relative to control; format: functional; details: ATCC 90028, 48 h, read-out: GI
Candida albicans [26] = test: Antifungal activity against Candida albicans ATCC 90028 assessed as planktonic growth inhibition at 1.37 uM after 48 hrs by M27-A3 protocol based method relative to control; format: functional; details: ATCC 90028, 48 h, read-out: GI
Candida albicans [27] = test: Antifungal activity against Candida albicans ATCC 90028 assessed as planktonic growth inhibition at 5.47 uM after 48 hrs by M27-A3 protocol based method relative to control; format: functional; details: ATCC 90028, 48 h, read-out: GI
Candida albicans [28] = test: Antifungal activity against Candida albicans ATCC 90028 assessed as planktonic growth inhibition at 2.74 uM after 48 hrs by M27-A3 protocol based method relative to control; format: functional; details: ATCC 90028, 48 h, read-out: GI
Candida albicans [29] = test: Antifungal activity against Candida albicans ATCC 90028 assessed as planktonic growth inhibition at 0.34 uM after 48 hrs by M27-A3 protocol based method relative to control; format: functional; details: ATCC 90028, 48 h, read-out: GI
Candida albicans [30] = test: Antifungal activity against Candida albicans ATCC 90028 assessed as planktonic growth inhibition at 43.78 uM after 48 hrs by M27-A3 protocol based method relative to control; format: functional; details: ATCC 90028, 48 h, read-out: GI
Candida albicans [31] = test: Antifungal activity against Candida albicans ATCC 90028 assessed as planktonic growth inhibition at 10.95 uM after 48 hrs by M27-A3 protocol based method relative to control; format: functional; details: ATCC 90028, 48 h, read-out: GI

In the case of `Fc1ccc(C2CCCN2CCCn2nnc(-c3ccccc3)n2)cc1` (stereo unspecified), the “log(activity)” value (Candida albicans [1]) is reported as -0.5, the Activity (Candida albicans [2]) is reported as “Active” and the inhibition of growth at 45.53 µM (Candida albicans [3]) is reported as 99.5%. The inhibition of growth at 11.38 µM (Candida albicans [4]) was 99.3%, the inhibition of growth at 22.76 µM (Candida albicans [5]) was 99.2% and the inhibition of growth at 0.71 µM (Candida albicans [6]) was 99.3%. For the same molecule, the inhibition of growth at 5.69 µM (Candida albicans [7]) was 99.3%, the inhibition of growth at 0.09 µM (Candida albicans [8]) was 99.2% and the inhibition of growth at 2.85 µM (Candida albicans [9]) was 99.3%. The inhibition of growth at 0.36 µM (Candida albicans [10]) was 99.2%, the Activity (Candida albicans [11]) was “Active” and the inhibition of growth at 0.18 µM (Candida albicans [12]) was 99.2%. The inhibition of growth at 1.42 µM (Candida albicans [13]) was 99.5% and the inhibition (Candida albicans [14]) was “Active”.
With `Cc1ccc(-c2nnn(CCCN3CCCC3c3ccc(C)cc3)n2)cc1` (stereo unspecified) the “log(activity)” value (Candida albicans [1]) was -0.6, the inhibition of growth at 5.53 µM (Candida albicans [15]) was 99.3% and the inhibition of growth at 22.13 µM (Candida albicans [16]) was 99.3%. It also gave an inhibition of growth at 1.38 µM (Candida albicans [17]) of 99%, an inhibition of growth at 11.07 µM (Candida albicans [18]) of 98.9% and an inhibition of growth at 0.17 µM (Candida albicans [19]) of 99.3%. The inhibition of growth at 2.77 µM (Candida albicans [20]) was 99%, the inhibition of growth at 44.26 µM (Candida albicans [21]) was 99.6% and the inhibition of growth at 0.09 µM (Candida albicans [8]) was 99%. The inhibition of growth at 0.35 µM (Candida albicans [22]) was 99.1% and the inhibition of growth at 0.69 µM (Candida albicans [23]) was 99.2%.
With `Cc1ccc(-c2nnn(CCCN3CCCC3c3ccc(F)cc3)n2)cc1` (stereo unspecified) the inhibition of growth at 0.68 µM (Candida albicans [24]) was 99.1%, the “log(activity)” value (Candida albicans [1]) was -0.3 and the inhibition of growth at 21.89 µM (Candida albicans [25]) was 98.7%. The inhibition of growth at 1.37 µM (Candida albicans [26]) was 99.2%, the inhibition of growth at 5.47 µM (Candida albicans [27]) was 99% and the inhibition of growth at 2.74 µM (Candida albicans [28]) was 99.2%. It also gave an inhibition of growth at 0.34 µM (Candida albicans [29]) of 99.2%, an inhibition of growth at 0.17 µM (Candida albicans [19]) of 99.1% and an inhibition of growth at 43.78 µM (Candida albicans [30]) of 98.9%. It also gave an inhibition of growth at 10.95 µM (Candida albicans [31]) of 99.4% and an inhibition of growth at 0.09 µM (Candida albicans [8]) of 99.1%.
